From patent US5280111A, “Sulfated tocopheryl oligosaccharides and antiviral agents including the same as active ingredients” (Dainippon Ink and Chemicals, Inc., priority 1991, dated 1994)
In brackets after ≈: the same amount, converted by molar mass. Where two headings read alike, the source gives them in different places.

How the values were obtained:
Format in all cases: cell-based
HIV-1 = assay: Anti-HIV assay: inhibition of virus induced cytopathogenicity in MT-4 cells (MTT method); conditions: for EC50: HIV-1-infected MT-4 cells, MOI 0.01, 5 days at 37° C., MTT method; for SI: ratio of CC50/EC50, 7200 min
Experimental: (§1) Activity of the compound against HIV-1 replication was based on the inhibition of virus induced cytopathogenicity in MT-4 cells. MT-4 cells were suspended in culture medium at 2.5×10^4 cells/ml and infected with HIV-1 at a multiplicity of infection (MOI) of 0.01. 100 μl of cell suspension was brought into microtiter tray wells containing various concentrations of the test compounds.
(§2) After 5 days of incubation at 37° C. using a CO2 incubator, the number of viable cells was determined by the MTT method.
(§3) The inhibitory effect on host cell viability (cytotoxicity) was also determined by the MTT method. All activities of the compounds are expressed as 50% inhibitory concentration, i.e., the concentration required to reduce the number of HIV-1-infected MT-4 cells or mock-infected MT-4 cells by 50%. These are expressed using EC50 and CC50. SI is expressed by the ratio of CC50 /EC50. (Reference document: Pauwels, et al., J. Virol Methods, 20 (1988) 309~321).
(§4) According to this method, the anti-HIV assay was carried out using the compounds obtained in Examples 9 to 14. In addition, AZT (3'-azido-3'-deoxythymidine) known as an anti-AIDS agent was employed as a comparative example.

[1] = Cytotoxicity: inhibitory effect on host cell viability, mock-infected MT-4 cells (MTT method); conditions: human; mock-infected MT-4 cells; 50% reduction of viable cells; MTT method; 5 days at 37° C.
Experimental: as §1, §2, §3, §4

MT-4 cells = assay: as above; conditions: human, mt-4 cells, 120 h
Experimental: as §1, §2, §3, §4

Work on `Cc1cn([C@H]2C[C@H](N=[N+]=[N-])[C@@H](CO)O2)c(=O)[nH]c1=O` [AZT, 3'-azido-3'-deoxythymidine, reference compound] yielded an EC50 (HIV-1; Human immunodeficiency virus 1, MT4, 120 h, read-out: EC50) of 0.0013 µg/mL (≈ 0.00486 µM), an SI (HIV-1) of 2160 and a CC50 at 120 h [1] of 2.88 µg/mL (≈ 10.8 µM).
“sulfated ester sodium salt of dl-α-tocopheryl β-D-glucosyl(1→3)-{β-D-glucosyl(1→3)}7 -β-D-glucoside [Example 12]” showed an EC50 (HIV-1) of 0.44 µg/mL, an SI (HIV-1) greater than 1000 and a CC50 (MT-4 cells) greater than 480 µg/mL.
Work on “sulfated ester sodium salt of dl-α-tocopheryl β-D-glucosyl(1→3)-{β-D-glucosyl(1→3)}3 -β-D-glucoside (1) [Example 10]” yielded an EC50 (HIV-1) of 0.52 µg/mL, an SI (HIV-1) greater than 920 and a CC50 (MT-4 cells) greater than 480 µg/mL.
In the case of “sulfated dl-α-tocopheryl β-D-galactosyl(1→4)-β-D-lactoside [Example 9]”, the EC50 (HIV-1) was 1.03 µg/mL, the SI (HIV-1) was 587 and the CC50 (MT-4 cells) was 606 µg/mL.
“sulfated dl-α-tocopheryl β-D-galactosyl(1→4)-β-D-galactosyl(1→4)-β-D-lactoside [Example 14]” gave an EC50 (HIV-1) of 0.57 µg/mL, an SI (HIV-1) of 1151 and a CC50 (MT-4 cells) of 656 µg/mL.
Work on `Cc1c(C)c2c(c(C)c1O[C@@H]1O[C@H](COS(=O)(=O)O)[C@@H](O[C@@H]3O[C@H](COS(=O)(=O)O)[C@H](O[C@@H]4O[C@H](COS(=O)(=O)O)[C@H](O[C@@H]5O[C@H](COS(=O)(=O)O)[C@H](OS(=O)(=O)O)[C@H](OS(=O)(=O)O)[C@H]5OS(=O)(=O)O)[C@H](OS(=O)(=O)O)[C@H]4OS(=O)(=O)O)[C@H](OS(=O)(=O)O)[C@H]3OS(=O)(=O)O)[C@H](OS(=O)(=O)O)[C@H]1OS(=O)(=O)O)CCC(C)(CCCC(C)CCCC(C)CCCC(C)C)O2` (mixture of isomers) [Example 13, sulfated dl-α-tocopheryl β-D-galactosyl(1→4)-β-D-galactosyl(1→4)-β-D-lactoside] yielded a CC50 (MT-4 cells) of 621 µg/mL.
In the case of “sulfated ester sodium salt of dl-α-tocopheryl β-D-glucosyl(1→3)-{β-D-glucosyl(1→3)}3 -β-D-glucoside (2) [Example 11]”, the EC50 (HIV-1) was 0.45 µg/mL, the SI (HIV-1) was greater than 1000 and the CC50 (MT-4 cells) was greater than 480 µg/mL.
